Source: publication PMC9820345, “Metal Complexes of a 5-Nitro-8-Hydroxyquinoline-Proline Hybrid with Enhanced Water Solubility Targeting Multidrug Resistant Cancer Cells” (International Journal of Molecular Sciences, 2022)

Assays:
[1] = Aqueous solubility at physiological pH (S7.4); format: physicochemical; settings: water, pH 7.4, aqueous buffer
[2] = Formation constants of Zn(II) complexes by UV-vis spectrophotometric titrations; format: physicochemical; settings: I = 0.1 M KCl, 25.0 °C, data evaluated at pH < 8
Procedure: Complexation of HQNO2-L-Pro with Zn(II) was studied by UV-vis and ^1H NMR spectroscopy (Figure 6). Comparing the UV-vis spectra recorded for the ligand in the presence and in the absence of Zn(II) with increasing pH, complex formation was evident from the UV-vis spectral changes at pH < ~8; however, in the basic pH range the spectra resembled more and more those of the free ligand. Based on the spectra recorded at pH < 8, formation constants for species [Zn(HL)]^+ and [Zn(HL)2] were determined (Table 2).
An Agilent Cary 8454 diode array spectrophotometer (Santa Clara, CA, USA) was used to obtain UV-vis spectra in the wavelength range 200–1000 nm, while spectra were recorded for the Fe(II)-containing samples using an Avantes (Avantes B.V., Apeldoorn, The Nederlands) AvaSpec-ULS2048CL-EVO spectrometer with an AvaLight-DHc light source and FDP-7UVIR200-2-VAR transmission dip probe. The titrations for the Fe(II)-containing samples were performed in a laboratory glove box (GP(Campus), Jacomex) (O2 content ≤ 1 ppm). The path length (ℓ) was 1 cm in most cases (the actual ℓ is always indicated in the legends of the figures). The concentrations of the ligands and complexes were between 40 and 200 µM, and 0.2 M KNO3 for the organometallic complexes or 0.1 M KCl for the Fe(II/III), Cu(II), and Zn(II) complexes were used to adjust the constant ionic strength. […]

[3] = at 1 μM concentration; pH 7.4
Procedure: Thus, a ligand displacement study was performed spectrophotometrically using 2,2’-bipyridine as the competitor (Figure S21) to determine the stability constant for the RhCp* complex at pH 7.4.
SUPPLEMENTARY INFORMATION
Figure S 20. UV-vis spectr a recorded for the (a) RhCp* − HQNO2-L-Pro (1:1) and (b) RuCym −
HQNO2-L-Pro (1:1) systems at different times at pH 1. Absorbance values plotted against the time
measured in the (c) RhCp* − HQNO2-L-Pro (1:1) at 435 nm, and (d) RuCym − HQNO2-L-Pro (1:1) at
410 nm at pH 1 and 4 (indicated in the figure). { cligand = 50 μM; cRhCp* or RuCym = 50 μM; l = 1 cm; t =
Figure S 21. (a) UV -vis spectra of the R hCp*-HQNO2-L-Pro complex at various equivalents of 2,2’ -
bipyridine at pH 7.4 after 24 h waiting time and (b) the measured absorbance values at 4 35 nm plotted
against the 2,2’-bipyridine:complex ratio.
complex taken from Ref. [74]. {ccomplex = 50 μM; PBS’ buffer; l = 1 cm; t = 25.0 °C}
c (2,2'-bipyridine) / c (complex) […]

| solubility [1] | logβ [M(HL)2] [2] | logβ [M(HL)] [2] | dissociation of the complex expected [3] | Structure (SMILES) |
| --- | --- | --- | --- | --- |
| > 10 mM | 33.71 ± 0.06 | 17.36 ± 0.03 |  | O=C(O)[C@@H]1CCCN1Cc1cc([N+](=O)[O-])c2cccnc2c1O [HQNO2-L-Pro, (2S)-1-((8-hydroxy-5-nitroquinolin-7-yl)methyl)pyrrolidin-1-ium-2-carboxylate] |
|  |  |  | < 1% | CC1=C(C)[C](C)([Rh]([Cl])[O]c2c(C[NH+]3CCC[C@H]3C(=O)O)cc([N+](=O)[O-])c3cccnc23)C(C)=C1C.[Cl-] [RhCp*-HQNO2-L-Pro, [RhCp*(HQNO2-L-Pro)Cl]Cl] |
